One may read the Ki as the equilibrium dissociation constant of an inhibitor or competing ligand from its target. By IC50 is commonly meant the concentration that inhibits the measured activity by half.

Structures are written as SMILES. Where two headings read alike, the source gives them in different places. A value given as a limit tells only on which side of the number the result lay.

Ki and IC50 data for 18 compounds are collected here from patent publication US11453671B2, “Pyrazolopyrimidine inhibitors of JAK kinases and uses thereof” (Genentech, Inc., priority 2020, dated 2022).

The target in test [1] is T1, recombinant human JAK1 kinase domain protein (Residues 854-1154) (Homo sapiens, UniProt P23458).
T1 construct: human JAK1 kinase domain protein (Residues 854-1154); purchased Proteros Biostructures GmbH (Martinsried, Germany); host or cells: insect cells
T1 sequence (P23458 854-1154): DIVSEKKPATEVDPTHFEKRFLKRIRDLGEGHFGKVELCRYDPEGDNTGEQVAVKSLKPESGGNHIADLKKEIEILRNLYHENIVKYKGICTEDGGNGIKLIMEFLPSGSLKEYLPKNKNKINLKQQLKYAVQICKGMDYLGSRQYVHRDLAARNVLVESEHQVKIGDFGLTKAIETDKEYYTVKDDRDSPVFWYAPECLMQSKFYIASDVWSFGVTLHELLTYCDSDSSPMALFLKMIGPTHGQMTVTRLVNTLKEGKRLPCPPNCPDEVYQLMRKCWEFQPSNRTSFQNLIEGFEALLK
The experiment in a line: JAK1 biochemical assay (microfluidic mobility shift, peptide phosphorylation). As to conditions: 25 μM ATP, 1 nM total JAK1; read-out: Enzyme JAK1 Ki. From the text: JAK1 and JAK2 Biochemical Assays

For test [2], the system named is JAK1: IL-13-stimulated STAT6 phosphorylation in BEAS-2B cells. The experiment in a line: P-STAT6 BEAS-2B+IL-13 Cell Assay. The format is cell-based, human. Particulars: IL-13 stimulation, read-out: Cellular JAK1 PSTAT6 BEAS2B + IL13 IC50. The protocol:
P-STAT6 BEAS-2B+IL-13 Cell Assay
In order to study the effect of JAK1 inhibitors in a cell line that is relevant to the cell biology of human asthma, an IL-13-stimulated STAT6 phosphorylation assay in the human lung bronchial epithelial BEAS-2B cell line was developed.
BEAS-2B cells (ATCC® CRL-9609™) were grown in Bronchial Epithelial Growth Medium (BEGM) (Lonza Catalog No. CC-3170; Walkersville, Md.; or PromoCell Catalog No. C-21060; Heidelberg, Germany). Test compound stock solutions (0.5 mM in DMSO) were serially diluted 1:2 in DMSO to generate a 10-point concentration curve (at 500×test concentration), which was further diluted by a 50-fold dilution step in BEGM to generate a 10× concentration curve (in 2% DMSO). Cells were plated at 100,000 cells/well in 200 μL of BEGM in 96-well plates and incubated for 48 hours at 37° C. in a humidified incubator. Medium was aspirated from the cells and replaced with 70 μL of fresh BEGM. Diluted test compound (10 μL; or 2% DMSO in assay medium) was added to the cells, and the plates were incubated for 1 hour at 37° C. in a humidified incubator. Twenty μL of 250 ng/mL human recombinant IL-13 (Bio Techne Catalog No. 213-ILB) was then added to the cells and incubated for 15 minutes at 37° C. Medium was aspirated from the cells and 60 μL of ice-cold 1×cell lysis buffer (Cell Signaling Technologies; Catalog No. 9803S) containing 1 mM PMSF was added to the cells. Assay plates were incubated at −80° C. for at least 1 hour. P-STAT6 was measured by coating GAR plates (MSD; Catalog No. L45RA-1) with rabbit anti-human total STAT6 antibody (Cell Signaling Technologies; Catalog No. 9362S), incubating the cell lysates in the coated plates overnight at 4° C., and then detecting with mouse anti-phospho-STAT6 (Tyr641) Clone 16E12 antibody (Millipore; Catalog No. 05-590, custom labeled by MSD with SULFO-tag) using standard MSD plate processing, washing, and detection protocols. Plates were read on the MESO SECTOR S600. Data Analysis
Data analysis was performed by subtracting negative control values from all wells and determining percent of control using the positive control values; the IC50 was determined with a four-parameter logistic fit model as shown in Equation 4.

For test [3], the target named is Recombinant human JAK2 kinase domain protein (Residues 812-1132) (Homo sapiens, UniProt O60674). The experiment in a line: JAK2 biochemical assay (microfluidic mobility shift, peptide phosphorylation). Particulars: Enzyme JAK2 Ki (nM), 25 μM ATP, 0.2 nM total JAK2.
Sequence of Recombinant human JAK2 kinase domain protein (Residues 812-1132) (O60674 812-1132): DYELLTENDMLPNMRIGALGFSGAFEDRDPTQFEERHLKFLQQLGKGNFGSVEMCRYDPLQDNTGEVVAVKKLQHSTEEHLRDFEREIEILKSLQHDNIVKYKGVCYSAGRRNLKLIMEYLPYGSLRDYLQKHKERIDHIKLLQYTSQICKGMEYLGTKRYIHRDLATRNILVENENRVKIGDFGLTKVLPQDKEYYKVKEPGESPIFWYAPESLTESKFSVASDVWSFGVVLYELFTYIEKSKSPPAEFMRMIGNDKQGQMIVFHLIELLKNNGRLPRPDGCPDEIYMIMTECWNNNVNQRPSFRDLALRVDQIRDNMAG

`CN1CC(n2cc(NC(=O)c3cnn4cccnc34)c(-c3cc(S(=O)(=O)C4CC4)ccc3OC(F)F)n2)C1` [Example 52, N-[3-[5-cyclopropylsulfonyl-2-(difluoromethoxy)phenyl]-1-(1-methylazetidin-3-yl)pyrazol-4-yl]pyrazolo[1,5-a]pyrimidine-3-carboxamide]: the values for the inhibition constant (Ki) in test [1] and in test [3] were 2.2 nM and 1 nM, respectively. Moreover, the IC50 in test [2] (Homo sapiens, BEAS-2B) amounted to 96 nM.

`Cn1cc(NC(=O)c2cnn3cccnc23)c(-c2cc(S(=O)(=O)c3c[nH]cn3)ccc2OC(F)F)n1` [Example 66, N-[3-[2-(difluoromethoxy)-5-(1H-imidazol-4-ylsulfonyl)phenyl]-1-methyl-pyrazol-4-yl]pyrazolo[1,5-a]pyrimidine-3-carboxamide]: the Ki in test [1] worked out at 0.55 nM; in test [3], 0.18 nM. Also, the 50% inhibitory concentration (IC50) in test [2] (Homo sapiens, BEAS-2B) was determined as 380 nM.

For the compound `CN1CC(S(=O)(=O)c2ccc(OC(F)F)c(-c3nn(C)cc3NC(=O)c3cnn4cccnc34)c2)C1` [Example 3, N-[3-[2-(difluoromethoxy)-5-(1-methylazetidin-3-yl)sulfonyl-phenyl]-1-methyl-pyrazol-4-yl]pyrazolo[1,5-a]pyrimidine-3-carboxamide], the inhibition constant Ki in test [1] was found to be 2 nM; in test [3], 0.66 nM. Moreover, the IC50 in test [2] (Homo sapiens, BEAS-2B) came to 58 nM.

Turning to `N#CCn1cc(NC(=O)c2cnn3cccnc23)c(-c2cc(S(=O)(=O)C3COC3)ccc2OC(F)F)n1` [Example 51, N-[1-(cyanomethyl)-3-[2-(difluoromethoxy)-5-(oxetan-3-ylsulfonyl)phenyl]pyrazol-4-yl]pyrazolo[1,5-a]pyrimidine-3-carboxamide], the inhibitory constant (Ki) in test [1] stood at 0.39 nM; in test [3] it was 0.21 nM. In addition, the 50% inhibitory concentration (IC50) in test [2] (Homo sapiens, BEAS-2B) was determined as 100 nM.

On to `Cn1cc(NC(=O)c2cnn3cccnc23)c(-c2cc(S(=O)(=O)c3cccc(CCN)c3)ccc2OC(F)F)n1` [Example 18, N-[3-[5-[3-(2-aminoethyl)phenyl]sulfonyl-2-(difluoromethoxy)phenyl]-1-methyl-pyrazol-4-yl]pyrazolo[1,5-a]pyrimidine-3-carboxamide], for which the figures for the inhibitory constant (Ki) in test [1] and in test [3] were 0.43 nM and 0.4 nM, respectively. In addition, the half-inhibitory concentration (IC50) in test [2] (Homo sapiens, BEAS-2B) was 290 nM.

Turning to `CS(=O)(=O)c1ccc(OC(F)F)c(-c2nn(C3CCOC3=O)cc2NC(=O)c2cnn3cccnc23)c1` (single isomer, unassigned) [Example 32, N-[3-[2-(difluoromethoxy)-5-methylsulfonyl-phenyl]-1-(2-oxotetrahydrofuran-3-yl)pyrazol-4-yl]pyrazolo[1,5-a]pyrimidine-3-carboxamide], the results for the inhibition constant Ki in test [1] and in test [3] were 1.1 nM and 0.62 nM, respectively. For the same compound, in test [2] (Homo sapiens, BEAS-2B), the IC50 was 120 nM.

`Cn1cc(NC(=O)c2cnn3cccnc23)c(-c2cc(S(=O)(=O)c3cnn(C4CN5CCC4CC5)c3)ccc2OC(F)F)n1` (stereo not drawn) [Example 55, N-[3-[2-(difluoromethoxy)-5-(1-quinuclidin-3-ylpyrazol-4-yl)sulfonyl-phenyl]-1-methyl-pyrazol-4-yl]pyrazolo[1,5-a]pyrimidine-3-carboxamide]: the Ki in test [1] was 0.93 nM; in test [3] it was 0.98 nM. The IC50 in test [2] (Homo sapiens, BEAS-2B) was found to be 71 nM.

Turning to `CS(=O)(=O)c1ccc(OC(F)F)c(-c2nn(C3CCOC3=O)cc2NC(=O)c2cnn3cccnc23)c1` (single isomer, unassigned) [Example 33, N-[3-[2-(difluoromethoxy)-5-methylsulfonyl-phenyl]-1-(2-oxotetrahydrofuran-3-yl)pyrazol-4-yl]pyrazolo[1,5-a]pyrimidine-3-carboxamide], the Ki is 0.4 nM in test [1] and 0.23 nM in test [3]. The half-inhibitory concentration (IC50) in test [2] worked out at 99 nM.

Turning to `CN1CCC(S(=O)(=O)c2ccc(OC(F)F)c(-c3nn(C)cc3NC(=O)c3cnn4cccnc34)c2)C1` (single isomer, unassigned) [Example 19, N-[3-[2-(difluoromethoxy)-5-(1-methylpyrrolidin-3-yl)sulfonyl-phenyl]-1-methyl-pyrazol-4-yl]pyrazolo[1,5-a]pyrimidine-3-carboxamide], the Ki was 4 nM in test [1] and 1.7 nM in test [3]. The 50% inhibitory concentration (IC50) in test [2] (Homo sapiens, BEAS-2B) was 120 nM.

In the case of `Cn1cc(NC(=O)c2cnn3cccnc23)c(-c2cc(S(=O)(=O)c3cncnc3)ccc2OC(F)F)n1` [Example 67, N-[3-[2-(difluoromethoxy)-5-pyrimidin-5-ylsulfonyl-phenyl]-1-methyl-pyrazol-4-yl]pyrazolo[1,5-a]pyrimidine-3-carboxamide], the inhibitory constant (Ki) in test [1] was determined as 0.48 nM; in test [3] it was 0.24 nM. The half-inhibitory concentration (IC50) in test [2] (Homo sapiens, BEAS-2B) came out at 25 nM.

Turning to `Cn1cc(NC(=O)c2cnn3cccnc23)c(-c2cc(S(=O)(=O)c3ccc(=O)[nH]c3)ccc2OC(F)F)n1` [Example 43, N-[3-[2-(difluoromethoxy)-5-[(6-oxo-1H-pyridin-3-yl)sulfonyl]phenyl]-1-methyl-pyrazol-4-yl]pyrazolo[1,5-a]pyrimidine-3-carboxamide], the inhibition constant Ki in test [1] was 0.5 nM; in test [3], 0.27 nM. Moreover, the IC50 in test [2] (Homo sapiens, BEAS-2B) was at least 1000 nM.

With `CN1C=Cc2ccc(S(=O)(=O)c3ccc(OC(F)F)c(-c4nn(C)cc4NC(=O)c4cnn5cccnc45)c3)cc2C1` [Example 62, N-[3-[2-(difluoromethoxy)-5-[(2-methyl-1H-isoquinolin-7-yl)sulfonyl]phenyl]-1-methyl-pyrazol-4-yl]pyrazolo[1,5-a]pyrimidine-3-carboxamide], the Ki in test [1] came out at 2 nM; in test [3] it was 0.93 nM. Besides, the IC50 in test [2] (Homo sapiens, BEAS-2B) was found to be 150 nM.

In the case of `Cn1cc(NC(=O)c2cnn3cccnc23)c(-c2cc(S(=O)(=O)c3cnn(CCN4CCC4)c3)ccc2OC(F)F)n1` [Example 53, N-[3-[5-[1-[2-(azetidin-1-yl)ethyl]pyrazol-4-yl]sulfonyl-2-(difluoromethoxy)phenyl]-1-methyl-pyrazol-4-yl]pyrazolo[1,5-a]pyrimidine-3-carboxamide], the Ki in test [1] amounted to 0.94 nM; in test [3], 0.19 nM. In addition, the IC50 in test [2] (Homo sapiens, BEAS-2B) amounted to 50 nM.

For the compound `CC(O)C(C)S(=O)(=O)c1ccc(OC(F)F)c(-c2nn(C)cc2NC(=O)c2cnn3cccnc23)c1` (single isomer, unassigned) [Example 70, N-[3-[2-(difluoromethxoy)-5-(2-hydroxy-1-methyl-propyl)sulfonyl-phenyl]-1-methyl-pyrazol-4-yl]pyrazolo[1,5-a]pyrimidine-3-carboxamide], the inhibition constant (Ki) in test [1] was determined as 1 nM; in test [3], 0.33 nM. In addition, in test [2], the IC50 was 75 nM.

For the compound `Cn1cc(NC(=O)c2cnn3cccnc23)c(-c2cc(S(N)(=O)=O)ccc2OC(F)F)n1` [Example 31, N-[3-[2-(difluoromethoxy)-5-sulfamoyl-phenyl]-1-methyl-pyrazol-4-yl]pyrazolo[1,5-a]pyrimidine-3-carboxamide], the values for the Ki in test [1] and in test [3] were 0.84 nM and 0.38 nM, respectively. For the same compound, in test [2] (Homo sapiens, BEAS-2B), the IC50 worked out at 51 nM.

With `Cn1cc(NC(=O)c2cnn3cccnc23)c(-c2cc(S(=O)(=O)C3CNC3)ccc2OC(F)F)n1` [Example 4, N-[3-[5-(azetidin-3-ylsulfonyl)-2-(difluoromethoxy)phenyl]-1-methyl-pyrazol-4-yl]pyrazolo[1,5-a]pyrimidine-3-carboxamide], the inhibition constant (Ki) in test [1] was 1.4 nM; in test [3], 0.6 nM. Moreover, the IC50 in test [2] (Homo sapiens, BEAS-2B) turned out to be 180 nM.

In the case of `Cn1cc(NC(=O)c2cnn3cccnc23)c(-c2cc(S(=O)(=O)CCN)ccc2OC(F)F)n1` [Example 8, N-[3-[5-(2-aminoethylsulfonyl)-2-(difluoromethoxy)phenyl]-1-methyl-pyrazol-4-yl]pyrazolo[1,5-a]pyrimidine-3-carboxamide], the inhibition constant Ki in test [1] is 0.82 nM; in test [3] it was 0.48 nM. Further, the half-inhibitory concentration (IC50) in test [2] (Homo sapiens, BEAS-2B) turned out to be 92 nM.

Turning to `N#CCn1cc(NC(=O)c2cnn3cccnc23)c(-c2cc(S(=O)(=O)C(F)F)ccc2OC(F)F)n1` [Example 29, N-[1-(cyanomethyl)-3-[2-(difluoromethoxy)-5-(difluoromethylsulfonyl)phenyl]pyrazol-4-yl]pyrazolo[1,5-a]pyrimidine-3-carboxamide], the inhibitory constant (Ki) worked out at 0.58 nM in test [1] and 0.37 nM in test [3]. Besides, in test [2] (Homo sapiens, BEAS-2B), the concentration for half-maximal inhibition (IC50) turned out to be 25 nM.
